pIC50: −log10 of the molar value. Like-named read-outs stand apart in the source and are kept apart here.
What was measured:
[1] = system: SF126; test: Cell vitality assay (ATP assay, CellTiter-Glo); format: cell-based; conditions: Homo sapiens, SF-126; SF126, 72 h; Table IIa; read-out: IC50 ATP-Assay after 72 h SF126
In short: (§1)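 IC50s reflect 50% loss of ATP-dependent luminescence versus DMSO control after a 72 h treatment of 1000 cells per well across 0.195–12.5 μM compound.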

[2] = system: Hs578T; test: Cell vitality assay (ATP assay, CellTiter-Glo); format: cell-based; conditions: Homo sapiens, Hs-578T, 72 h
In short: as §1

[3] = system: U118; test: Cell vitality assay (ATP assay, CellTiter-Glo); format: cell-based; conditions: U118, 72 h; Table IIa; read-out: IC50 ATP-Assay after 72 h U118
In short: as §1

[4] = system: SF126; test: Matrigel outgrowth assay/branching assay; format: cell-based; conditions: Homo sapiens, SF-126, Table Vb, read-out: Total branching inhibition in Matrigel SF126
In short: (§2)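 Cells (5000/well) were seeded onto polymerized 3 mg/ml Matrigel with compound at 3.125, 1.56 or 0.78 μM versus DMSO. Branching was imaged by inverted microscopy (5× objective) at 48, 72 and 96 h. Only concentrations giving total branching inhibition scored positive.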

[5] = system: A172; test: Matrigel outgrowth assay/branching assay; format: cell-based; conditions: Homo sapiens, A 172, Table Vb, read-out: Total branching inhibition in Matrigel A172
In short: as §2

[6] = system: Hs578T; test: Matrigel outgrowth assay/branching assay; format: cell-based; conditions: Homo sapiens, Hs-578T; HS578T cell line; Table Ib; read-out: Total branching inhibition in Matrigel HS578T
In short: as §2

[7] = system: U118; test: Matrigel outgrowth assay/branching assay; format: cell-based; conditions: Table Vb, read-out: Total branching inhibition in Matrigel U118
In short: as §2

[8] = system: indicated cell line; test: Wound healing migration assay (Table IV); format: cell-based; conditions: compounds at 12.5, 6.25, 3.125 μM, 48 h-72 h
In short: (§3)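 Compound exposure at 12.5, 6.25 and 3.125 μM, with DMSO control, on scratch-wounded monolayers (150000 cells/24 well, overnight). Wound closure imaged by microscopy, fixed with crystal violet after 48 h or 72 h depending on cell line; IC50 is the concentration giving 50% wound size between t0 and t48/t72.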

[9] = system: viable cells in culture; test: Cell viability assay at 10 μM (CellTiter-Glo, Table VII); format: cell-based; conditions: compound 10 μM, 72 h;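 also: graded A 0-20%; B 21-40%; C 41-60%; D over 60% viable cells relative to DMSO control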
In short: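 Cells were seeded at 1000 cells/well in 96-well plates in 100 μl culture medium and incubated for 72 h with 10 μM compound or a DMSO control. ATP content, which reflects metabolically active and therefore viable cells, was then determined by CellTiter-Glo luminescence (Promega) per the manufacturer's instructions and expressed relative to the DMSO control.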

[10] = system: Hs578T; test: Wound healing migration assay; format: cell-based; conditions: Homo sapiens, Hs-578T; HS578T cell line; Table Ib
In short: as §3

[11] = HS578T cell line, Table Ib, read-out: IC50 ATP-Assay HS578T after 72 h
[12] = Hs578T, Table IIa, read-out: IC50 ATP-Assay after 72 h Hs578T
[13] = Homo sapiens, A 172, A172 cells, read-out: IC50 Wound healing Assay A172
[14] = Homo sapiens, SF-126, SF126 cells, read-out: IC50 Wound healing Assay SF126
[15] = Homo sapiens, C8161 cells, read-out: IC50 Wound healing Assay C8161
[16] = SF763 cells, read-out: IC50 Wound healing Assay SF763
[17] = U118 cells, read-out: IC50 Wound healing Assay U118
[18] = Homo sapiens, HCT-116, HCT116 def, read-out: percentage (%) of viable cells HCT 116def
[19] = Homo sapiens, HCT-116, HCT116 wt, read-out: percentage (%) of viable cells HCT 116wt
[20] = Homo sapiens, HT-29, HT29, read-out: percentage (%) of viable cells HT29
[21] = Homo sapiens, NCI-H358, H358, read-out: percentage (%) of viable cells H358
[22] = Homo sapiens, NCI-H1650, H1650, read-out: percentage (%) of viable cells H1650
[23] = Homo sapiens, NCI-H1666, H1666, read-out: percentage (%) of viable cells H1666
[24] = Homo sapiens, NCI-H1975, H1975, read-out: percentage (%) of viable cells H1975
[25] = Homo sapiens, NCI-H1993, H1993, read-out: percentage (%) of viable cells H1993
[26] = Homo sapiens, A549, read-out: percentage (%) of viable cells A549
[27] = Homo sapiens, HCC827, read-out: percentage (%) of viable cells HCC827
[28] = Homo sapiens, SW480, read-out: percentage (%) of viable cells SW480
[29] = RKO, read-out: percentage (%) of viable cells RKO

Row | SMILES | pIC50 [1] | pIC50 [2, 11] | pIC50 [2, 12] | pIC50 [3] | IC100 [4] | IC100 [5] | pIC50 [6] | IC100 [7] | melting point | pIC50 [8, 13] | pIC50 [8, 14] | pIC50 [8, 15] | pIC50 [8, 16] | pIC50 [8, 17] | viability at 10 µM [9, 18] | viability at 10 µM [9, 19] | viability at 10 µM [9, 20] | viability at 10 µM [9, 21] | viability at 10 µM [9, 22] | viability at 10 µM [9, 23] | further results
1 | COc1cc2c(Oc3ccc(NS(=O)(=O)c4ccccc4Cl)cc3F)ccnc2cc1OCCCN1CCCC(C)C1 (stereo not drawn) [Example 38, 2-Chloro-N-(3-fluoro-4-{6-methoxy-7-[3-(3-methyl-piperidin-1-yl)-propoxy]-quinolin-4-yloxy}-phenyl)-benzenesulfonamide] | ≥ 4.90 | 4.30 to 4.90 | 4.30 to 4.90 | ≥ 4.90 | ≤ 12.5 µM | ≤ 12.5 µM | ≥ 5.00 | > 12.5 µM | 115 to 118 °C | ≥ 4.90 | ≥ 4.90 | ≥ 4.90 | 4.30 to 4.90 | ≥ 4.90 | 21 to 40% | 21 to 40% | 0 to 20% | 0 to 20% | > 60% | 21 to 40% | viability at 10 µM [9, 24]: 21 to 40%; viability at 10 µM [9, 25]: 21 to 40%; viability at 10 µM [9, 26]: > 60%; viability at 10 µM [9, 27]: 41 to 60%; viability at 10 µM [9, 28]: 0 to 20%; viability at 10 µM [9, 29]: 0 to 20%; pIC50 [10]: ≥ 4.90
2 | COc1cc2c(Oc3ccc(NS(=O)(=O)c4ccc(F)cc4F)cc3F)ccnc2cc1OCCCN1CCCC(C)C1 (stereo not drawn) [Example 47, 2,4-Difluoro-N-(3-fluoro-4-{6-methoxy-7-[3-(3-methyl-piperidin-1-yl)-propoxy]-quinolin-4-yloxy}-phenyl)-benzenesulfonamide] | ≥ 4.90 | ≥ 4.90 | ≥ 4.90 | ≥ 4.90 | ≤ 12.5 µM | > 12.5 µM | ≥ 5.00 | ≤ 12.5 µM | 118 to 120 °C | ≥ 4.90 | ≥ 4.90 | ≥ 4.90 | ≥ 4.90 | ≥ 4.90 | 21 to 40% | 0 to 20% | 41 to 60% | 0 to 20% | 41 to 60% | 21 to 40% | viability at 10 µM [9, 24]: 0 to 20%; viability at 10 µM [9, 25]: 0 to 20%; viability at 10 µM [9, 26]: 41 to 60%; viability at 10 µM [9, 27]: 41 to 60%; viability at 10 µM [9, 28]: 21 to 40%; viability at 10 µM [9, 29]: 0 to 20%; pIC50 [10]: ≥ 4.90

Reference: patent US9169241B2, “Quinolinyloxyphenylsulfonamides” (Max-Planck-Gesellschaft Zur Forderung der Wissenschaften …, priority 2009, dated 2015)
